From patent EP4308247B1, “USE OF MONO[…] TREATING SIGNS OF SKIN AGING” (Unilever IP Holdings B.V., priority 2021, dated 2022)

Tested on: primary adult human dermal fibroblasts (HDFs)
Test: High-throughput compound screen for senolytic activity (cell viability by Hoechst 33342 / SYTOX Green imaging) in early proliferating (EP) and deeply senescent (DS) fibroblasts
Assay type: cell-based
Design: key to hit classification based on EP and DS cell viability: senolytic: EP cell viability above the 89% EP threshold and DS cell viability below the 87% DS threshold for at least one concentration of the three serial concentrations; prolifolytic: decreased EP cell viability below the 89% EP threshold but did not decrease DS cell viability below 87%; cytotoxic: decreased both EP and DS cell viability below their respective thresholds; non-toxic: maintained both EP and DS viability above their respective thresholds
Description: A high-throughput compound screen of 1240 test compounds including inter alia monostearin (IUPAC: 1,3-dihydroxypropan-2-yl octadecanoate 2,3-dihydroxypropyl octadecanoate) was optimised in primary adult human dermal fibroblasts (HDFs). For this, a model of replicative senescence in HDFs was established. In brief, early proliferating (EP) fibroblasts at passage 11 were serially passaged until they reached replicative senescence at passage 29.
Actinomycin D, a drug widely reported to induce apoptosis in multiple cell types, was optimised for use as a positive 'senolytic control' for the high-throughput compound screen in EP (0.02µM) and DS (0.2µM) HDFs.
In order to perform the high-throughput screen of the test compounds a thorough validation process of the assay was undertaken prior to experimental screening. For both EP and DS HDFs, the following steps were optimised: optimisation of cell seeding densities in 384-well plate format; validation and optimisation of Actinomycin D positive and DMSO-vehicle negative controls; optimisation of high-throughput image acquisition and high content analysis of Hoechst 33342 (ThermoFisher, UK) in combination with SYTOX Green (ThermoFisher, UK) using the INCell 2200 microscope (GE, UK) for cell death phenotypic read-outs; optimisation of liquid handling system protocols; plate uniformity assessments; and a "dry run" of all components in the assay. […]

With CCCCCCCCCCCCCCCCCC(=O)OCC(O)CO (centres unmarked) [monostearin, 1,3-dihydroxypropan-2-yl octadecanoate 2,3-dihydroxypropyl octadecanoate] the “cytotoxicity for senescent cells, compared to growing cells” value (DS versus EP HDFs, conclusion drawn from the screen) was “preferential cytotoxicity for senescent cells” and the “hit classification based on EP and DS cell viability” value (EP and DS HDFs, three serial concentrations, 48 hours incubation, read-out five days post-compound addition, class met for at least one concentration) was “senolytic”.
